SMILES strings stand for the structures.

The test concerns the target T1, Equilibrative nucleoside transporter 1 (Homo sapiens, UniProt Q99808).
T1 sequence (Q99808 whole entry): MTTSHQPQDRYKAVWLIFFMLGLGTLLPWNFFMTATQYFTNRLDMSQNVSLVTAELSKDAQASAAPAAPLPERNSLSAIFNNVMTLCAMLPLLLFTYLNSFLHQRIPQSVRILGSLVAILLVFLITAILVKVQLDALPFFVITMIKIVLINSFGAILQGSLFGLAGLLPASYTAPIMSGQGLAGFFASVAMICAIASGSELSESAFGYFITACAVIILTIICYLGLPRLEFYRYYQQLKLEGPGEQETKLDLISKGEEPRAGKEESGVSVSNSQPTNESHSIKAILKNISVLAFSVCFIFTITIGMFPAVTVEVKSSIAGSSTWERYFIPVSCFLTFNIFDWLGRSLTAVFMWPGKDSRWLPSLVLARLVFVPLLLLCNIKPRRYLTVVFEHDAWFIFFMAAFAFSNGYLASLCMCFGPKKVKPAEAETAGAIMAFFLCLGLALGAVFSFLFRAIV
Kind of test: Inhibition of human ENT1.
For `CC(C)(C)c1ccc(CSc2ncnc3c2ncn3[C@@H]2O[C@H](CO)[C@@H](O)[C@H]2O)cc1`, the Ki was 10000 nM.

As to `OC[C@H]1O[C@@H](n2cnc3c(SCc4ccccc4Cl)ncnc32)[C@H](O)[C@@H]1O`, the affinity, expressed as Ki, was 117 nM.

`COC(=O)c1ccc(CSc2ncnc3c2ncn3[C@@H]2O[C@H](CO)[C@@H](O)[C@H]2O)cc1` showed a Ki of 46.8 nM.

In the case of `Cc1ccc(CSc2ncnc3c2ncn3[C@@H]2O[C@H](CO)[C@@H](O)[C@H]2O)cc1`, the Ki was 15.1 nM.

In turn, `OC[C@H]1O[C@@H](n2cnc3c(SCc4ccc(Br)cc4)ncnc32)[C@H](O)[C@@H]1O` gave an inhibition constant Ki of 11.5 nM.

`OC[C@H]1O[C@@H](n2cnc3c(SCc4ccc(OC(F)(F)F)cc4)ncnc32)[C@H](O)[C@@H]1O` showed a Ki of 7.08 nM. This Ki is about 1.6-fold lower than that of the compound before.

With `OC[C@H]1O[C@@H](n2cnc3c(SCc4cccc(Cl)c4)ncnc32)[C@H](O)[C@@H]1O`, the affinity corresponds to a Ki of 18.2 nM.

Compound `O=[N+]([O-])c1ccccc1CSc1ncnc2c1ncn2[C@@H]1O[C@H](CO)[C@@H](O)[C@H]1O` had a Ki of 115 nM.

Regarding `N#Cc1ccccc1CSc1ncnc2c1ncn2[C@@H]1O[C@H](CO)[C@@H](O)[C@H]1O`, the affinity corresponds to a Ki of 38.9 nM. This Ki lies about 3-fold lower than the previous one.

In turn, `N#Cc1cccc(CSc2ncnc3c2ncn3[C@@H]2O[C@H](CO)[C@@H](O)[C@H]2O)c1` had a Ki of 36.3 nM.

Compound `OC[C@H]1O[C@@H](n2cnc3c(SCc4ccccc4Br)ncnc32)[C@H](O)[C@@H]1O` had a Ki of 151 nM.

`OC[C@H]1O[C@@H](n2cnc3c(SCc4cccc(Br)c4)ncnc32)[C@H](O)[C@@H]1O` gave a Ki of 20.9 nM.

As for `OC[C@H]1O[C@@H](n2cnc3c(SCc4ccc(I)cc4)ncnc32)[C@H](O)[C@@H]1O`, the Ki was 3.8 nM.

`OC[C@H]1O[C@@H](n2cnc3c(SCc4ccccc4I)ncnc32)[C@H](O)[C@@H]1O` showed a Ki of 19.5 nM.

`OC[C@H]1O[C@@H](n2cnc3c(SCc4cccc(F)c4)ncnc32)[C@H](O)[C@@H]1O`: affinity was put at a Ki of 12.9 nM.

Consider `Cc1ccccc1CSc1ncnc2c1ncn2[C@@H]1O[C@H](CO)[C@@H](O)[C@H]1O`, for which affinity was put at a Ki of 67.6 nM.

The compound `OC[C@H]1O[C@@H](n2cnc3c(SCc4ccc(Cl)c(Cl)c4)ncnc32)[C@H](O)[C@@H]1O` gave a Ki of 12.6 nM.

`Cc1cccc(CSc2ncnc3c2ncn3[C@@H]2O[C@H](CO)[C@@H](O)[C@H]2O)c1` had a Ki of 16.2 nM.

For the compound `OC[C@H]1O[C@@H](n2cnc3c(SCc4cccc(C(F)(F)F)c4)ncnc32)[C@H](O)[C@@H]1O`, the affinity, expressed as Ki, was 19.1 nM.

Turning to `OC[C@H]1O[C@@H](n2cnc3c(SCc4c(F)cccc4Cl)ncnc32)[C@H](O)[C@@H]1O`, affinity was put at a Ki of 87.1 nM.

As to `OC[C@H]1O[C@@H](n2cnc3c(SCc4ccccc4F)ncnc32)[C@H](O)[C@@H]1O`, the Ki was 24 nM.

`Cc1cc(C)c(CSc2ncnc3c2ncn3[C@@H]2O[C@H](CO)[C@@H](O)[C@H]2O)c(C)c1` showed a Ki of 1910 nM.

`OC[C@H]1O[C@@H](n2cnc3c(SCc4ccc(Cl)cc4)ncnc32)[C@H](O)[C@@H]1O` gave a Ki of 14.8 nM.

On to `COc1ccc(CSc2ncnc3c2ncn3[C@@H]2O[C@H](CO)[C@@H](O)[C@H]2O)cc1`, for which the Ki was 34.7 nM.

The compound `OC[C@H]1O[C@@H](n2cnc3c(SCc4ccc(Cl)cc4Cl)ncnc32)[C@H](O)[C@@H]1O` had a Ki of 4.37 nM.

In the case of `O=[N+]([O-])c1cccc(CSc2ncnc3c2ncn3[C@@H]2O[C@H](CO)[C@@H](O)[C@H]2O)c1`, the Ki was 1.78 nM.

Take `N#Cc1ccc(CSc2ncnc3c2ncn3[C@@H]2O[C@H](CO)[C@@H](O)[C@H]2O)cc1`: affinity was put at a Ki of 4.57 nM.

Take `OC[C@H]1O[C@@H](n2cnc3c(SCc4ccccc4)ncnc32)[C@H](O)[C@@H]1O` [6-BENZYLTHIOINOSINE]: the Ki is 20 nM.

By Ki is commonly meant a measure of affinity in units of concentration, obtained from inhibition or displacement.

(Values after ChEMBL document CHEMBL1149083, “CoMFA and CoMSIA 3D-QSAR studies on S(6)-(4-nitrobenzyl)mercaptopurine riboside (NBMPR) analogs as inhibitors of human equilibrative nucleoside transporter 1 (hENT1)” (Bioorg Med Chem Lett, 2009).)
